Measured values from US12128024B2 (GEORGETOWN UNIVERSITY, priority 2004, dated 2024).

What was measured:
[1] = test system: cervical cancer cell lines (HeLa, SiHa, Caski); assay: Viability dose-response of cervical cancer cell lines (FIG. 3); format: cell-based; conditions: 72 h, 25 μM DHA, within 3 days of treatment, read-out: loss of viability
HeLa cells = assay: Viability dose-response of HeLa cells (FIG. 3); format: cell-based; conditions: 25 μM DHA
[2] = test system: MJ, HTLV-I positive cutneous T cell leukemia line; assay: Trypan blue viability of HTLV-I positive lymphoid cell line (FIG. 5); format: cell-based; conditions: Primate T-lymphotropic virus 1, T-cell; 6.25 μM DHA; MJ cells; read-out: cells killed (viability as % of controls, trypan blue)
Procedure: (§1) One cell line, referred to as MJ, is an HTLV-I positive cutneous T cell leukemia line and the other cell line, referred to Namalwa, is an EBV positive Burkitt's lymphoma B cell line.
(§2) The cell lines were maintained in culture, using RPMI 1640 medium, supplemented with 10% fetal bovine serum and antibiotics. For the assay, 100,000 cells, in volumes of 100 μl medium, were placed in micro-titer wells; an additional 100 μl medium, containing 0 μM, 6.25 μM, 12.5 μM, 25 μM, 50 μM, 100 μM and 200 μM concentrations of DHA, were added. The negative controls contained medium only. The DHA stock (20 mM) was used to dilute the drug in concentrations ranging from 0 to 200 μM. All experiments were performed in triplicate. After incubation at 37° C. and 5% CO2, for various time periods, the cells were counted in a hemocytometer in the presence of trypan blue. Viability was expressed, as % of controls (no drug).

[3] = test system: Namalwa, EBV positive Burkitt's lymphoma B cell line; assay: Trypan blue viability of EBV positive lymphoid cell line (FIG. 4); format: cell-based; conditions: human gammaherpesvirus 4, B-cell; 6.25 μM DHA; Namalwa cells; read-out: cells killed (viability as % of controls, trypan blue)
Procedure: as §1, §2

[4] = cited from earlier work
[5] = test system: cervical cancer cell lines; assay: Morphology of cervical cancer cell lines after artemisinin treatment (phase contrast microscopy, FIG. 2); format: cell-based; conditions: 25 μM artemisinin, 3 days, vs control solvent
[6] = test system: normal cervical cells (HCX); assay: Morphology of normal cervical cells after artemisinin treatment (phase contrast microscopy, FIG. 2); format: cell-based; conditions: 25 μM artemisinin, 3 days, vs control solvent

C[C@H]1[C@@H](O)O[C@@H]2O[C@@]3(C)CC[C@H]4[C@H](C)CC[C@@H]1[C@@]24OO3 [DHA, dihydroartemisinin]
cytotoxicity at 25 µM [1]: 80%
cell death (HeLa cells): 95%
cytotoxicity at 6.25 µM [2]: ~60%
cytotoxicity at 6.25 µM [3]: ~60%
solubility in water compared with artemisinin [4]: higher solubility in water

CCO[C@H]1O[C@@H]2O[C@@]3(C)CC[C@H]4[C@H](C)CC[C@@H]([C@H]1C)[C@@]24OO3 [arteether]
solubility in water compared with artemisinin [4]: higher solubility in water

C[C@H]1[C@@H](OCc2ccc(C(=O)O)cc2)O[C@@H]2O[C@@]3(C)CC[C@H]4[C@H](C)CC[C@@H]1[C@@]24OO3 [artelinic acid]
solubility in water compared with artemisinin [4]: higher solubility in water

CO[C@H]1O[C@@H]2O[C@@]3(C)CC[C@H]4[C@H](C)CC[C@@H]([C@H]1C)[C@@]24OO3 [artemether]
solubility in water compared with artemisinin [4]: higher solubility in water

C[C@@H]1CC[C@H]2[C@@H](C)C(=O)O[C@@H]3O[C@@]4(C)CC[C@@H]1[C@]32OO4 [artemisinin]
change in morphology of cervical cancer cells [5]: rounded up and detached from the tissue culture plate
change in morphology of normal cervical cells (HCX) [6]: little change in morphology

CCCOC(=O)OC1O[C@@H]2O[C@@]3(C)CC[C@H]4[C@H](C)CC[C@@H]([C@H]1C)[C@@]24OO3 (some centres unmarked) [propylcarbonate dihydroartemisinin]
solubility in water compared with artemisinin [4]: higher solubility in water
